This assay is described as follows: cytotoxicity in NIH3T3 fibroblasts, dose response, cytotoxicity control for HSP40 inhibitor project, cell-based, CellTiter-Glo luminescence, cherry-pick, set 2 (AID 624265).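 Note: cells exposed to compound for 48 hours before the ATP read; 0% = median neutral control signal and -100% = no luminescence left.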 The following applies: NIH3T3 viability, CellTiter-Glo ATP luminescence.

Values joined by “and” are separate entries in the source; they are usually repeats but may differ in a detail not shown here. Identical values can stand only once. Active and inactive are the calls of the source.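 Rule for the calls: active = at a dose no more than twice the top valid tested dose, the fitted curve drops below -35% activity change; inactive = the rest, rising-direction activity included.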

Regarding `Clc1ccc(-c2n[nH]c3c2CCC3)cc1Cl`, the activity change, negative = toxicity (at 50 µM (top of the series)) was 1.25% (inactive).
Still for that read-out and setting: with `Cc1cccc(C)c1N1C(=O)C2ON(c3ccccc3)C(c3ccncc3)C2C1=O` (stereo unspecified) the figure was 15.5% (inactive).
Consider `Nc1nc(-c2ccccc2)c(-c2ccc([N+](=O)[O-])cc2)s1`, for which, where the note is “at 50 µM (top of the series)”, the activity change, negative = toxicity is 15.2% (inactive).
Still for that read-out and setting: with `CCCCCCC(Cl)(Cn1ccnc1)c1ccccc1` (stereo unspecified) the figure was 16% (inactive).
Regarding `COc1ccc(-c2cc(C(=O)N3CCN(c4ccccc4F)CC3)c3ccccc3n2)c(OC)c1`, the activity change, negative = toxicity (at 50 µM (top of the series)) was -9.73% (inactive).
Still for that read-out and setting: the value for `O=C(COc1ccccc1F)Nc1nc(-c2ccccn2)cs1` was -8.96% (inactive).
The same measure, in the same setting: the value for `O=C(c1ccc(-c2ccccc2)cc1)C1CCCN(C(=O)c2cncs2)C1` (stereo unspecified) was -8.68% (inactive).
Same read-out and setting: with `O=C(c1ccccc1)c1ccc(Cn2cc(-c3ccccc3)nn2)cc1` the figure was 5.39% (inactive); with `Cc1nc(-c2ccccn2)nc(N(C)c2ccccc2)c1Cl`, 9.36% (inactive).
As to `Cc1ccc(C)c(/C=C/C(=O)c2ccccc(=O)c2O)c1`, the activity change, negative = toxicity (at 50 µM (top of the series)) was -4.58% (inactive).
Still for that read-out and setting: the value for `CCCCn1c(=O)c(C(=O)NCc2ccncc2)c(O)c2ccccc21` was 25% (inactive).
Take `CCCCC(=O)NC(=S)NNC(=O)CCc1ccccc1`: the activity change, negative = toxicity (at 50 µM (top of the series)) was -16.3% (inactive).
Regarding `O=C1N(c2ccc(Cl)cc2)C(c2cccnc2)N2CCCN12` (stereo unspecified), the activity change, negative = toxicity (at 50 µM (top of the series)) was 17.3% (inactive).
Still for that read-out and setting: the value for `O=C(OCC(=O)C12CC3CC(CC(C3)C1)C2)c1ccc(O)cc1` was 0.345% (inactive).
Regarding `CC(=O)NC(c1ccc(C)cc1)c1cc([N+](=O)[O-])c2cccnc2c1O` (stereo unspecified), for the setting “at 50 µM (top of the series)”, the activity change, negative = toxicity was -0.602% (inactive).
Still for that read-out and setting: with `O/N=C/c1ccccc1OCc1ccc(Cl)cc1` the figure was 18.4% (inactive); with `COc1ccc(/C=N/Nc2cc(C)nc(-n3nc(C)cc3C)n2)cc1`, -9.51% (inactive); with `O=C(NCc1ccncc1)c1ccccc1Nc1ccc(SC(F)F)cc1`, 3.29% (inactive).
Still for that read-out and setting: with `FC(F)(F)c1nc(SCc2ccc(Cl)cc2Cl)n[nH]1` the figure was -4.01% (inactive); with `COc1ccc2oc(=O)c(-c3csc(Nc4cccc(O)c4)n3)cc2c1`, 4.36% (inactive); with `O=[N+]([O-])c1cc(C(F)(F)F)ccc1NCCc1c[nH]c2ccc(O)cc12`, -9.08% (inactive).
The same measure, in the same setting: the value for `CC(C)(C)n1nc(Cc2cccc3ccccc23)c2c(N)ncnc21` was 9.94% (inactive); that for `Clc1ccc(C(Cn2ccnc2)OCc2c(Cl)cccc2Cl)c(Cl)c1` (stereo unspecified) was 0.224% (inactive); that for `C=CCc1ccc(O)c(-c2ccc(O)c(CC=C)c2)c1` was 9.45% (inactive).
`CCCCCCCn1c(=O)c(C(=O)OC)c(N)c2ccccc21`: for the setting “at 50 µM (top of the series)”, the activity change, negative = toxicity is -3.81% (inactive).
The same measure, in the same setting: with `Cc1cc(Nc2ccccc2)nn1C(=O)c1ccccc1` the figure was 10% (inactive); with `CC1Oc2ccccc2C=C1/C=N/Nc1ccc(C(=O)O)cc1` (stereo unspecified), 1.68% (inactive); with `O=c1c2ccccc2nc(-c2ccc(-c3ccccc3)cc2)n1-c1ccncc1`, 4% (inactive).
The same measure, in the same setting: the value for `CCc1ccc(S(=O)(=O)N(C(=O)c2ccncc2)c2ccc(OC(=O)c3ccncc3)cc2)cc1` was 12.1% (inactive); that for `O=C(Nc1ccc(Br)c(C(F)(F)F)c1)c1ccccc1` was -9.98% (inactive).
On the same count and under the same terms, the value for `Cc1ccc(Sc2cc(C)nc(-c3ccccn3)n2)cc1` was 11.7% (inactive); that for `Clc1ccc(COC(Cn2ccnc2)c2ccc(Cl)cc2Cl)c(Cl)c1` (stereo unspecified) was 5.58% (inactive) and 0.687% (inactive).
For `CC1(C)C2CCC1(C)C(OC(=O)c1ccc(O)cc1)C2` (stereo unspecified), for the setting “at 50 µM (top of the series)”, the activity change, negative = toxicity was -0.777% (inactive).
Still for that read-out and setting: the value for `O=C(Oc1c(Cl)cc(Cl)c2cccnc12)c1cccs1` was 19% (inactive); that for `Cc1ccc(-c2c3c(nc4sc(C(N)=O)c(N)c24)CCCC3)o1` was 14.4% (inactive).
Turning to `CCCn1c(=O)c(C(=O)NCc2ccc(OC)c(OC)c2)c(O)c2ccccc21`, the activity change, negative = toxicity (at 50 µM (top of the series)) was 30.8% (inactive).
`CN(c1ccccc1)c1nc(N2CCCC2)nc(-n2ccnc2)n1`: the activity change, negative = toxicity (at 50 µM (top of the series)) is 11.2% (inactive).
In the case of `CC(/C=N/n1c(COc2ccccc2)n[nH]c1=S)=C\c1ccccc1`, the activity change, negative = toxicity (at 50 µM (top of the series)) is 14.6% (inactive).
On the same count and under the same terms, the value for `CCCn1nc(C(=O)N2CCN(S(=O)(=O)c3ccc(C)c(C)c3)CC2)c2ccccc2c1=O` was 2.59% (inactive).
On to `CCCn1c2ccccc2c2cc(C(=O)O)ccc21`, for which the activity change, negative = toxicity (at 50 µM (top of the series)) was -3.19% (inactive).
With `O=C(NCC1CC1(Cl)Cl)Nc1ccc(Cl)c(Cl)c1` (stereo unspecified), the activity change, negative = toxicity (at 50 µM (top of the series)) is 17.4% (inactive).
As to `CC(=O)Nc1cccc(NC(=O)CSc2ccc(-c3ccccn3)nn2)c1`, the activity change, negative = toxicity (at 50 µM (top of the series)) is -9.54% (inactive).
`COc1ccc(N(C(=O)c2ccncc2)S(=O)(=O)c2ccc(F)cc2)cc1`: where the note is “at 50 µM (top of the series)”, the activity change, negative = toxicity was 0.026% (inactive).
Same read-out and setting: with `COc1ccc(N(C)S(=O)(=O)c2ccc(Cl)c(C(=O)NNC(=O)c3ccccc3O)c2)cc1` the figure was 3.26% (inactive); with `O/N=C/c1cc(Br)ccc1OCc1ccccc1F`, 7.25% (inactive).
Same read-out and setting: the value for `C=CCNc1nc(-c2ccccn2)nnc1-c1ccccc1` was -23.8% (inactive); that for `CCc1ccc(CN(C)C(=O)c2cc(COc3cccc(C(F)(F)F)c3)on2)nc1` was 5.53% (inactive); that for `Cc1cccc(Nc2nc(-c3ccc(O)cc3O)cs2)n1` was 0.061% (inactive).
For the compound `CC1=NN(C(N)=S)C(=O)C1N=Nc1cccc(Cl)c1C` (stereo unspecified), the activity change, negative = toxicity (at 50 µM (top of the series)) was -14.8% (inactive).
For `O=C1Nc2c(Br)cccc2C1=O`, the activity change, negative = toxicity (at 50 µM (top of the series)) was -1.42% (inactive).
On the same count and under the same terms, the value for `CC1(C)C=Cc2c(ccc3c2OC[C@@H](c2ccc(O)cc2O)C3)O1` was 16.2% (inactive); that for `CCOC(=O)c1cnc(-n2nc(C)cc2C)nc1NC1CCCC1` was 37.9% (inactive).
On the same count and under the same terms, the value for `O=C(O)CSc1nc(-c2ccc(Cl)cc2)nc2c1oc1ccccc12` was -3.22% (inactive).
Still for that read-out and setting: the value for `CCc1ccc(OCc2n[nH]c(=S)n2Cc2ccccc2)cc1` was 3.81% (inactive); that for `CC(C)(C)C(=O)C(Oc1ccc(Cl)cc1)n1cncn1` (stereo unspecified) was 9.05% (inactive).
For `COc1cnc(-c2ccccn2)nc1Sc1ccccc1`, where the note is “at 50 µM (top of the series)”, the activity change, negative = toxicity is 9.22% (inactive).
Regarding `O=C1OCC(CO)(CO)N=C1NNc1ccc(Cl)c(Cl)c1`, where the note is “at 50 µM (top of the series)”, the activity change, negative = toxicity is 2.06% (inactive).
Still for that read-out and setting: the value for `Cc1ccc(O)c(C2=NNC(c3ccc(Cl)cc3)C2)c1` (stereo unspecified) was 0.122% (inactive); that for `COc1cnc(-c2ccccn2)nc1Oc1ccc(C(C)(C)C)cc1` was 23.5% (inactive).
Same read-out and setting: the value for `[O-][n+]1cccc2c(Br)cc(Br)c(O)c21` was -12.1% (inactive).
As to `O=C(Nc1nnc(-c2ccccc2)o1)c1ccc(Cl)cc1`, the activity change, negative = toxicity (at 50 µM (top of the series)) is 29.9% (inactive).
Regarding `Cc1cc(C(=O)COC(=O)Cc2n[nH]c(=O)c3ccccc23)c(C)n1-c1cccc(C(F)(F)F)c1`, under “at 50 µM (top of the series)”, the activity change, negative = toxicity is 24.5% (inactive).
The same measure, in the same setting: the value for `O=C(CN1CC[n+]2c(-c3cccs3)csc21)c1ccc(-c2ccccc2)cc1` was 28% (inactive).
The same measure, in the same setting: with `S=C(Nc1ccc(Oc2ccccc2)cc1)NC1CCCCCC1` the figure was 12.1% (inactive); with `Nc1nc(-c2ccc(Oc3ccccc3)cc2)cs1`, 6.84% (inactive).
In the case of `C=CCn1c(-c2cc(-c3ccc(C)cc3)nc3ccccc23)n[nH]c1=S`, the activity change, negative = toxicity (at 50 µM (top of the series)) was 15.5% (inactive).
On to `Cn1nc(C(F)(F)F)c(C#N)c1N1CCN(c2ccc(F)cc2)CC1`, for which, under “at 50 µM (top of the series)”, the activity change, negative = toxicity was 21.3% (inactive).
Same read-out and setting: with `CCCCCCSc1ccc(-c2nc3ccccn3c2NCCCC)cc1` the figure was 14% (inactive); with `O/N=C(\c1ccc(Cl)cc1)c1cc2ccccc2o1`, -9.72% (inactive); with `COc1cc2c(c(OC)c1OC)-c1ccc(O)c(=O)cc1[C@@H](NC(C)=O)CC2`, 4.18% (inactive).
On to `CC(C)C(=O)NC(c1ccco1)c1ccc2cccnc2c1O` (stereo unspecified), for which the activity change, negative = toxicity (at 16 µM (top of the series)) was -30% (inactive).
As to `COC(=O)C1=C(C)NC(C)=C(C(=O)OCC(C)C)C1c1ccccc1[N+](=O)[O-]` (stereo unspecified), the activity change, negative = toxicity (at 50 µM (top of the series)) was -14.8% (inactive).
On the same count and under the same terms, with `Cc1cc(NS(=O)(=O)c2ccc(C3CCCCC3)cc2)no1` the figure was -14.2% (inactive); with `CCC(C)c1ccc(NC(=S)NCCn2cc(Br)cn2)cc1` (stereo unspecified), 16.1% (inactive).
For the compound `COC(OC)c1ccc(C#N)c(SCc2ccccc2)n1`, the activity change, negative = toxicity (at 50 µM (top of the series)) was -6.85% (inactive).
Same read-out and setting: the value for `O=S(=O)(Nc1ccccc1)c1ccc(Oc2ncc(C(F)(F)F)cc2Cl)cc1` was 13% (inactive); that for `CCC1=NN(C(=O)c2cccc(Br)c2)C(O)(c2ccc(Br)cc2)C1` (stereo unspecified) was 4.18% (inactive).
In the case of `CNc1cc(CSC)nc(SCc2ccc(Cl)cc2Cl)n1`, the activity change, negative = toxicity (at 50 µM (top of the series)) was 18.6% (inactive).
As for `O=C(c1ccccc1)N1C(=O)C(c2ccccc2)Oc2ccccc21` (stereo unspecified), the activity change, negative = toxicity (at 50 µM (top of the series)) is 5.11% (inactive).
On the same count and under the same terms, with `Cc1ccccc1C(=O)NNC(=S)NC(=O)c1ccc(Cl)cc1Cl` the figure was -5.68% (inactive).
Same read-out and setting: with `CCCCC(=O)NC(c1ccco1)c1cc(Cl)c2cccnc2c1O` (stereo unspecified) the figure was -22.9% (inactive).

The record behind these values is PubChem BioAssay AID624265 (Broad Institute, 2012).
